Source: patent publication US8580778B2, “Substituted dihydropyrazolones and their use” (Bayer Intellectual Property GmbH, priority 2008, dated 2013)
Where a name gives a salt, the structure may show the parent alone.

Biological target: HIF prolyl hydroxylase
Assay: Inhibition of the activity of HIF prolyl hydroxylase (VBC complex binding test)
Format: biochemical
Details: cell lysate containing prolyl hydroxylase
Experimental: 1.a) Inhibition of the Activity of HIF Prolyl Dydroxylase:
Hydroxylated HIF bonds specifically to the von Hippel-Lindau protein-elongin B-elongin C complex (VBC complex). This interaction occurs only if HIF is hydroxylated on a conserved prolyl radical. It is the basis for the biochemical determination of HIF prolyl hydroxylase activity. The test is carried out as described [Oehme F., Jonghaus W., Narouz-Ott L., Huetter J., Flamme I., Anal. Biochem. 330 (1), 74-80 (2004)]:
A clear 96-well microtiter plate coated with NeutrAvidin HBC (Pierce) is incubated with blocker casein for 30 minutes. The plate is then washed three times with 200 μl each time of wash buffer (50 mM Tris, pH 7.5, 100 mM NaCl, 10% (v/v) blocker casein, 0.05% (v/v) Tween 20) per well. The peptide biotin-DLDLEMLAPYIPMDDDFQL (Eurogentec, 4102 Seraing, Belgium) is added in a concentration of 400 nM in 100 μl wash buffer. This peptide serves as a substrate for the prolyl hydroxylation and is bonded to the microtiter plate. After incubation for 60 minutes, the plate is washed three times with wash buffer, incubated with 1 mM biotin in blocker casein for 30 minutes and then washed again three times with wash buffer.
To carry out the prolyl hydroxylase reaction, the peptide substrate bonded to the plate is incubated with a cell lysate containing prolyl hydroxylase for 1 to 60 minutes. The reaction takes place in 100 μl reaction buffer (20 mM Tris, pH 7.5, 5 mM KCl, 1.5 mM MgCl2, 1 μM-1 mM 2-oxoglutarate, 10 μM FeSO4, 2 mM ascorbate) at room temperature. The reaction mixture moreover contains various concentrations of the prolyl hydroxylase inhibitor to be tested. The test substance is preferably, but not exclusively, employed at concentrations of between 1 nM and 100 μM. The reaction is stopped by washing the plate three times with wash buffer.
For quantitative determination of the prolyl hydroxylation, a fusion protein which contains both thioredoxin from E. coli and the VBC complex in 80 μl bonding buffer (50 mM Tris, pH 7.5, 120 mM NaCl) is added. After 15 minutes, 10 μl of a solution of polyclonal anti-thioredoxin antibodies from rabbit in bonding buffer are added. After a further 30 minutes, 10 μl of a solution of anti-rabbit immunoglobulin coupled to horseradish peroxidase in bonding buffer are added. After incubation at room temperature for 30 minutes, the plate is washed three times with wash buffer in order to remove non-bonded VBC complex and antibodies. To determine the amount of bonded VBC complex, the plate is incubated with TMB for 15 minutes. The colour reaction is ended by addition of 100 μl 1 M sulphuric acid. The amount of bonded VBC complex is determined by measurement of the optical density at 450 nm. It is proportional to the amount of hydroxylated proline in the peptide substrate.
Alternatively, a VBC complex coupled to europium (Perkin Elmer) can be used for detection of the prolyl hydroxylation. In this case, the amount of bonded VBC complex is determined by the fluorescence with respect to time. The use of VBC complex labelled with [^35S]-methionine is moreover possible. For this, the radioactively labelled VBC complex can be prepared by in vitro transcription-translation in reticulocyte lysate.

SMILES | IC50 [nM]
N#Cc1cn(-c2c[nH]n(-c3cc(N4CCC(F)(F)C4)ncn3)c2=O)nn1 [Example 17, 1-{2-[6-(3,3-Difluoropyrrolidin-1-yl)pyrimidin-4-yl]-3-oxo-2,3-dihydro-1H-pyrazol-4-yl}-1H-1,2,3-triazole-4-carbonitrile] | 130
O=C(O)C1CN(c2cc(-n3[nH]cc(-n4ccnc4)c3=O)ncn2)C1 [Example 5, 1-{6-[4-(1H-Imidazol-1-yl)-5-oxo-2,5-dihydro-1H-pyrazol-1-yl]pyrimidin-4-yl}azetidine-3-carboxylic acid] | 540
O=c1c(-n2ccnn2)c[nH]n1-c1cc(N2CCN(C3CCC3)CC2)ncn1 [Example 2, 2-[6-(4-Cyclobutylpiperazin-1-yl)pyrimidin-4-yl]-4-(1H-1,2,3-triazol-1-yl)-1,2-dihydro-3H-pyrazol-3-one] | 880
N#Cc1cn(-c2c[nH]n(-c3cc(N4CC(F)(F)C4)ncn3)c2=O)nn1 [Example 21, 1-{2-[6-(3,3-Difluoroazetidin-1-yl)pyrimidin-4-yl]-3-oxo-2,3-dihydro-1H-pyrazol-4-yl}-1H-1,2,3-triazole-4-carbonitrile] | 70
N#Cc1cn(-c2c[nH]n(-c3cc(N4CCCOCC4)ncn3)c2=O)cn1 [Example 25, 1-{2-[6-(1,4-Oxazepan-4-yl)pyrimidin-4-yl]-3-oxo-2,3-dihydro-1H-pyrazol-4-yl}-1H-imidazole-4-carbonitrile] | 180
CN(C)C1CN(c2cc(-n3[nH]cc(-n4ccnn4)c3=O)ncn2)C1 [Example 9, 2-{6-[3-(Dimethylamino)azetidin-1-yl]pyrimidin-4-yl}-4-(1H-1,2,3-triazol-1-yl)-1,2-dihydro-3H-pyrazol-3-one dihydrochloride] | 760
N#Cc1cn(-c2c[nH]n(-c3cc(N4CCCCO4)ncn3)c2=O)nn1 [Example 29, 1-{2-[6-(1,2-Oxazinan-2-yl)pyrimidin-4-yl]-3-oxo-2,3-dihydro-1H-pyrazol-4-yl}-1H-1,2,3-triazole-4-carbonitrile] | 170
N#Cc1cn(-c2c[nH]n(-c3cc(N4CCCOCC4)ncn3)c2=O)nn1 [Example 26, 1-{2-[6-(1,4-Oxazepan-4-yl)pyrimidin-4-yl]-3-oxo-2,3-dihydro-1H-pyrazol-4-yl}-1H-1,2,3-triazole-4-carbonitrile] | 380
